Data: PubChem BioAssay (NCI)
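1) Cells in 96-well plates. 2) Compound, 48 h, 5 concentrations. 3) Linear interpolation between surrounding doses. 4) Unreached endpoint = highest concentration. TGI: concentration producing complete growth inhibition.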

Experiments:
Assay in all cases: NCI tumour cell line growth inhibition, 48 h
COLO 205 colon = tested on: COLO 205 colon
SK-MEL-2 melanoma = tested on: SK-MEL-2 melanoma
DU-145 prostate = tested on: DU-145 prostate
HOP-92 NSCLC = tested on: HOP-92 NSCLC
CAKI-1 renal = tested on: CAKI-1 renal
NCI-H460 lung = tested on: NCI-H460 lung
BT-549 breast = tested on: BT-549 breast
OVCAR-8 ovarian = tested on: OVCAR-8 ovarian
MOLT-4 leukemia = tested on: MOLT-4 leukemia
SW-620 colon = tested on: SW-620 colon
TK-10 renal = tested on: TK-10 renal
IGROV1 ovarian = tested on: IGROV1 ovarian
SN12C renal = tested on: SN12C renal
HOP-62 NSCLC = tested on: HOP-62 NSCLC
A498 renal = tested on: A498 renal
SNB-19 CNS = tested on: SNB-19 CNS
UACC-62 melanoma = tested on: UACC-62 melanoma
RXF 393 renal = tested on: RXF 393 renal
MDA-N = tested on: MDA-N
HCT-15 colon = tested on: HCT-15 colon
HCT-116 colon = tested on: HCT-116 colon
SNB-75 CNS = tested on: SNB-75 CNS
T-47D breast = tested on: T-47D breast
786-0 renal = tested on: 786-0 renal
HS 578T breast = tested on: HS 578T breast
NCI-H23 lung = tested on: NCI-H23 lung
SF-539 CNS = tested on: SF-539 CNS
LOX IMVI melanoma = tested on: LOX IMVI melanoma
MDA-MB-231 breast = tested on: MDA-MB-231 breast
MALME-3M melanoma = tested on: MALME-3M melanoma
NCI-H226 lung = tested on: NCI-H226 lung
RPMI-8226 leukemia = tested on: RPMI-8226 leukemia
KM12 colon = tested on: KM12 colon
NCI-H522 lung = tested on: NCI-H522 lung
OVCAR-5 ovarian = tested on: OVCAR-5 ovarian
SK-OV-3 ovarian = tested on: SK-OV-3 ovarian
CCRF-CEM leukemia = tested on: CCRF-CEM leukemia
SK-MEL-28 melanoma = tested on: SK-MEL-28 melanoma
ACHN renal = tested on: ACHN renal
U251 CNS = tested on: U251 CNS
EKVX NSCLC = tested on: EKVX NSCLC
M14 melanoma = tested on: M14 melanoma
SF-268 CNS = tested on: SF-268 CNS
MDA-MB-435 = tested on: MDA-MB-435
NCI/ADR-RES ovarian = tested on: NCI/ADR-RES ovarian
K-562 leukemia = tested on: K-562 leukemia
UO-31 renal = tested on: UO-31 renal
SF-295 CNS = tested on: SF-295 CNS
OVCAR-3 ovarian = tested on: OVCAR-3 ovarian
SK-MEL-5 melanoma = tested on: SK-MEL-5 melanoma
PC-3 prostate = tested on: PC-3 prostate
HL-60(TB) leukemia = tested on: HL-60(TB) leukemia
A549 NSCLC = tested on: A549 NSCLC
HT29 colon = tested on: HT29 colon
UACC-257 melanoma = tested on: UACC-257 melanoma
OVCAR-4 ovarian = tested on: OVCAR-4 ovarian
HCC-2998 colon = tested on: HCC-2998 colon
MCF7 breast = tested on: MCF7 breast
SR leukemia = tested on: SR leukemia

Measured: TGI

O=c1[nH][nH]c(=O)n1Cc1ccccc1Cn1c(=O)[nH][nH]c1=O
not listed: OVCAR-4 ovarian | HCC-2998 colon | MCF7 breast | SR leukemia
> 100 µM: all other assays above

CCCN=C1CCN(Cc2ccccc2)c2ccccc2N1
34.3 µM: BT-549 breast
22.1 µM: MALME-3M melanoma
19.5 µM: IGROV1 ovarian
32.6 µM: OVCAR-8 ovarian
43.6 µM: U251 CNS
96.1 µM: NCI-H226 lung
31.3 µM: M14 melanoma
29.3 µM: SK-MEL-28 melanoma
41.5 µM: NCI-H23 lung
95.3 µM: SF-295 CNS
29.2 µM: UACC-257 melanoma
64.6 µM: KM12 colon
36.8 µM: SF-268 CNS
90.1 µM: HT29 colon
31.6 µM: SK-MEL-2 melanoma
27.5 µM: SNB-75 CNS
22.9 µM: COLO 205 colon
94.1 µM: ACHN renal
45 µM: MDA-MB-435
36.2 µM: HS 578T breast
37.3 µM: HL-60(TB) leukemia
29.6 µM: RXF 393 renal
25.4 µM: A498 renal
28.2 µM: SK-MEL-5 melanoma
34.4 µM: NCI/ADR-RES ovarian
59.9 µM: MDA-MB-231 breast | PC-3 prostate
27.9 µM: NCI-H522 lung
36.3 µM: NCI-H460 lung
26.2 µM: UACC-62 melanoma
63.9 µM: CAKI-1 renal
51.7 µM: HCT-15 colon
34.1 µM: MOLT-4 leukemia
28.9 µM: RPMI-8226 leukemia
19.4 µM: K-562 leukemia
not listed: HOP-92 NSCLC | T-47D breast | SF-539 CNS | LOX IMVI melanoma | HCC-2998 colon | MCF7 breast | SR leukemia
> 100 µM: all other assays above

Cc1ccsc1/C=N/Nc1ncccn1
not listed: NCI-H460 lung | SF-539 CNS | NCI-H522 lung | SR leukemia
> 100 µM: all other assays above

O=C(NNC(=O)c1ccccc1SSc1ccccc1C(=O)NNC(=O)c1ccccc1S)c1ccccc1S
74.8 µM: BT-549 breast
> 52.5 µM: SF-268 CNS
> 91.7 µM: SK-MEL-28 melanoma
54.8 µM: UACC-62 melanoma
> 92.6 µM: SN12C renal
> 95.4 µM: UACC-257 melanoma
24.4 µM: CCRF-CEM leukemia
> 75.3 µM: SR leukemia
> 71.5 µM: EKVX NSCLC
62.2 µM: NCI-H23 lung
9.49 µM: HL-60(TB) leukemia
61.5 µM: HCT-15 colon
> 81.2 µM: MALME-3M melanoma
1.67 µM: NCI-H522 lung
> 87 µM: MOLT-4 leukemia
> 71.9 µM: U251 CNS
> 54.7 µM: DU-145 prostate
> 74.9 µM: PC-3 prostate
> 73.6 µM: NCI/ADR-RES ovarian
> 53.9 µM: SF-539 CNS
> 27.8 µM: T-47D breast
98 µM: 786-0 renal
> 49.8 µM: SNB-75 CNS
> 90.5 µM: SK-MEL-2 melanoma
> 95.2 µM: HT29 colon
> 74.6 µM: MDA-MB-231 breast
> 65.1 µM: HCT-116 colon
not listed: A498 renal | HS 578T breast
> 100 µM: all other assays above
